From patent publication US8937072B2, “Substituted cyanoaniline compounds, preparation and use thereof” (Sinochem Corporation, priority 2011, dated 2015) come the findings set out here.

Several values for one entry are separate records, joined by “and”; a condition that tells them apart may be missing. Equal entries are not always repeated.

For one assay, the system named is cucumber downy mildew. In words: Protectant activity in vivo (whole plant) against cucumber downy mildew. The following applies: 12.5 mg/L. Here is the method: The method is as followed: The whole plant is used in this test. The compound is dissolved in a proper solvent to get mother solution. The proper solvent is selected from acetone, methanol, DMF and so on according to their dissolving capability to the sample. The volume rate of solvent and testing solution (v/v) is equal to or less than 5%. The mother solution is diluted with water containing 0.1% tween-80 to get the testing solution whose concentration is designed. The testing solution is sprayed to the host plant by a special plant sprayer. The plant is inoculated with fungus after 24 hours. According to the infecting characteristic of fungus, the plant is stored in a humidity chamber and then transferred into greenhouse after infection is finished. And the other plants are placed in greenhouse directly. The activity of compound is obtained by eyeballing after 7 days in common.
As to `N#Cc1ccc(Nc2c(Cl)c(Cl)c(C#N)c(Cl)c2C#N)cc1C(F)(F)F` [Compound B-40], the “the protectant activity (%) against cucumber downy mildew” value (“the protectant activity (%)” below) is given as 30%. Turning to `N#Cc1c(Cl)c(Cl)c(Nc2c(Cl)cncc2Cl)c(C#N)c1Cl` [Compound B-139], the “the protectant activity (%)” value worked out at 100%.

The assay is the same for the next values; noted with them: 25 mg/L.
On to `N#Cc1ccc(Nc2c(Cl)c(Cl)c(C#N)c(Cl)c2C#N)cc1C(F)(F)F` [Compound B-40], for which the “the protectant activity (%)” value stood at 98%. The same measure, in the same setting: with `N#Cc1c(Cl)c(Cl)c(Nc2c(Cl)cncc2Cl)c(C#N)c1Cl` [Compound B-139] the figure was 98%.

The assay is the same for the next values; noted with them: 50 mg/L.
For `N#Cc1ccc(Nc2c(Cl)c(Cl)c(C#N)c(Cl)c2C#N)cc1C(F)(F)F` [Compound B-40], the “the protectant activity (%)” value was 100%. The same measure, in the same setting: with `N#Cc1c(Cl)c(Cl)c(Nc2c(Cl)cncc2Cl)c(C#N)c1Cl` [Compound B-139] the figure was 98%.

Still in this assay, the particulars now being: 100 mg/L.
For the compound `N#Cc1ccc(Nc2c(Cl)c(Cl)c(C#N)c(Cl)c2C#N)cc1C(F)(F)F` [Compound B-40], the “the protectant activity (%)” value worked out at 100%.

Consider `N#Cc1c(Cl)c(Cl)c(Nc2c(Cl)cncc2Cl)c(C#N)c1Cl` [Compound B-139], for which the “the protectant activity (%)” value is 100%.

The assay is the same for the next values; noted with them: dose 12.5 mg/L.
In the case of `N#Cc1c(Cl)c(Cl)c(Nc2c(Cl)cncc2Cl)c(C#N)c1Cl` [Compound B-139], the “protectant activity against cucumber downy mildew in vivo” value (from here on “protectant activity … in vivo”) was 98%.

The assay is the same for the next values; noted with them: dose 25 mg/L.
Turning to `N#Cc1c(Cl)c(Cl)c(Nc2ccc([N+](=O)[O-])cc2F)c(Cl)c1C#N` [Compound A-14], the “protectant activity … in vivo” value is listed as 100%. As to `N#Cc1c(Cl)c(Cl)c(Nc2c(Br)cc([N+](=O)[O-])cc2Br)c(Cl)c1C#N` [Compound A-45], the “protectant activity … in vivo” value came out at 100%.

Still in this assay, the particulars now being: dose 50 mg/L.
`N#Cc1c(F)c(F)c(Nc2c(Cl)cc([N+](=O)[O-])cc2Cl)c(C#N)c1F` [Compound B-109]: the “protectant activity … in vivo” value is 100%. As for `N#Cc1ccc(Nc2c(Cl)c(Cl)c(C#N)c(Cl)c2C#N)cc1C(F)(F)F` [Compound B-40], the “protectant activity … in vivo” value is 100%. For the compound `COc1cc([N+](=O)[O-])ccc1Nc1c(F)c(C#N)c(F)c(F)c1C#N` [Compound C-88], the “protectant activity … in vivo” value stood at 98%. On the same count and under the same terms, with `N#Cc1c(F)c(F)c(C#N)c(Nc2c(Br)cc([N+](=O)[O-])cc2Br)c1F` [Compound C-96] the figure was 98%; with `N#Cc1c(Cl)c(Cl)c(Nc2c(Cl)cncc2Cl)c(C#N)c1Cl` [Compound B-139], 98%; with `N#Cc1c(Cl)c(Cl)c(Nc2ccc([N+](=O)[O-])cc2F)c(Cl)c1C#N` [Compound A-14], 100%.

As to `N#Cc1c(Cl)c(Cl)c(Nc2c(Br)cc([N+](=O)[O-])cc2Br)c(Cl)c1C#N` [Compound A-45], the “protectant activity … in vivo” value amounted to 100%.

The assay is the same for the next values; noted with them: dose 100 mg/L.
For the compound `N#Cc1c(Cl)c(Cl)c(Nc2c(Cl)cc([N+](=O)[O-])cc2Cl)c(Cl)c1C#N` [Compound A-44], the “protectant activity … in vivo” value amounted to 100%.

Consider `N#Cc1c(F)c(F)c(Nc2c(Cl)cc([N+](=O)[O-])cc2Cl)c(C#N)c1F` [Compound B-109], for which the “protectant activity … in vivo” value was determined as 100%. Take `N#Cc1ccc(Nc2c(Cl)c(Cl)c(C#N)c(Cl)c2C#N)cc1C(F)(F)F` [Compound B-40]: the “protectant activity … in vivo” value was 100%. Regarding `N#Cc1c(Cl)c(Cl)c(C#N)c(Nc2ccc(C(F)(F)F)cc2Cl)c1Cl` [Compound C-30], the “protectant activity … in vivo” value is on record as 90%. Turning to `N#Cc1c(Cl)c(Cl)c(Nc2c(Cl)cncc2Cl)c(C#N)c1Cl` [Compound B-139], the “protectant activity … in vivo” value is on record as 100%.

Turning to `Cc1ccnc(Nc2c(Cl)c(Cl)c(C#N)c(C#N)c2Cl)c1` [Compound A-80], the “protectant activity … in vivo” value is given as 100%.

For `N#Cc1c(Cl)c(Cl)c(Nc2ccc(Br)cn2)c(Cl)c1C#N` [Compound A-79], the “protectant activity … in vivo” value turned out to be 100%. Same read-out and setting: with `N#Cc1c(Cl)c(Cl)c(Nc2ccc([N+](=O)[O-])cc2F)c(Cl)c1C#N` [Compound A-14] the figure was 100%; with `N#Cc1ccc(Nc2c(Cl)c(C#N)c(Cl)c(Cl)c2C#N)cc1C(F)(F)F` [Compound C-38], 100% and 90%; with `N#Cc1c(Cl)c(Cl)c(Nc2c(Br)cc([N+](=O)[O-])cc2Br)c(Cl)c1C#N` [Compound A-45], 100%.

Staying with this assay, now noted: dose 400 mg/L.
With `N#Cc1c(F)c(F)c(C#N)c(Nc2ccc([N+](=O)[O-])cc2F)c1F` [Compound C-79], the “protectant activity … in vivo” value came to 100%. On the same count and under the same terms, with `N#Cc1ccc(Nc2c(Cl)c(Cl)c(C#N)c(Cl)c2C#N)cc1` [Compound B-10] the figure was 100%; with `Cc1ccc(Nc2c(Cl)c(Cl)c(C#N)c(C#N)c2Cl)nc1` [Compound A-81], 100%; with `N#Cc1c(Cl)c(Cl)c(Nc2c(Cl)cc([N+](=O)[O-])cc2Cl)c(Cl)c1C#N` [Compound A-44], 100%. Same read-out and setting: then `N#Cc1c(F)c(F)c(Nc2c(Cl)cc([N+](=O)[O-])cc2Cl)c(C#N)c1F` [Compound B-109], with 100%.

With `N#Cc1ccc(Nc2c(Cl)c(Cl)c(C#N)c(C#N)c2Cl)cc1C(F)(F)F` [Compound A-27], the “protectant activity … in vivo” value was determined as 100%. With `N#Cc1c(Cl)c(Cl)c(C#N)c(Nc2cc(C(F)(F)F)ccc2Cl)c1Cl` [Compound C-32], the “protectant activity … in vivo” value was found to be 100%.

With `N#Cc1ccc(Nc2c(Cl)c(Cl)c(C#N)c(Cl)c2C#N)cc1C(F)(F)F` [Compound B-40], the “protectant activity … in vivo” value is reported as 100%. Same read-out and setting: then `CNC(=O)c1cc(Cl)cc(C)c1Nc1c(Cl)c(C#N)c(Cl)c(Cl)c1C#N` [Compound C-56], with 100%; and `N#Cc1c(F)c(F)c(C#N)c(Nc2cc([N+](=O)[O-])ccc2Cl)c1F` [Compound C-81], with 100%; and `N#Cc1c(Cl)c(Cl)c(Nc2cccc(Cl)c2Cl)c(C#N)c1Cl` [Compound B-16], with 100%. Same read-out and setting: then `COC(=O)c1ccc(Nc2c(Cl)c(Cl)c(C#N)c(C#N)c2Cl)cc1` [Compound A-11], with 100%.

For `N#Cc1c(F)c(F)c(Nc2ccc([N+](=O)[O-])cc2Cl)c(C#N)c1F` [Compound B-95], the “protectant activity … in vivo” value was determined as 100%.

Take `N#Cc1c(Cl)c(Cl)c(C#N)c(Nc2ccc(OC(F)(F)F)cc2)c1Cl` [Compound C-13]: the “protectant activity … in vivo” value was found to be 100%.

For the compound `COc1cc([N+](=O)[O-])ccc1Nc1c(Cl)c(C#N)c(Cl)c(Cl)c1C#N` [Compound C-35], the “protectant activity … in vivo” value turned out to be 100%. On the same count and under the same terms, then `N#Cc1c(Cl)c(Cl)c(C#N)c(Nc2ccc(C(F)(F)F)cc2Cl)c1Cl` [Compound C-30], with 100%; and `N#Cc1ccc(Nc2c(Cl)c(C#N)c(Cl)c(Cl)c2C#N)cc1` [Compound C-12], with 100%; and `Cc1c(Cl)c([N+](=O)[O-])cc([N+](=O)[O-])c1Nc1c(Cl)c(Cl)c(C#N)c(C#N)c1Cl` [Compound A-61], with 100%. Still for that read-out and setting: with `N#Cc1c(Cl)c(Cl)c(Nc2cc([N+](=O)[O-])ccc2Cl)c(Cl)c1C#N` [Compound A-16] the figure was 100%.

Turning to `N#Cc1cc([N+](=O)[O-])cc(Br)c1Nc1c(F)c(F)c(C#N)c(F)c1C#N` [Compound B-116], the “protectant activity … in vivo” value was 100%. Turning to `N#Cc1c(Cl)c(Cl)c(Nc2c(Cl)cncc2Cl)c(C#N)c1Cl` [Compound B-139], the “protectant activity … in vivo” value worked out at 100%. Same read-out and setting: with `Cc1ccnc(Nc2c(Cl)c(Cl)c(C#N)c(C#N)c2Cl)c1` [Compound A-80] the figure was 100%; with `N#Cc1c(Cl)c(Cl)c(Nc2ccc([N+](=O)[O-])cc2[N+](=O)[O-])c(C#N)c1Cl` [Compound B-37], 100%.

In the case of `N#Cc1c(Cl)c(Cl)c(Nc2ccc(Br)cn2)c(Cl)c1C#N` [Compound A-79], the “protectant activity … in vivo” value was 100%. The same measure, in the same setting: with `N#Cc1c(Cl)c(Cl)c(Nc2ccc([N+](=O)[O-])cc2F)c(Cl)c1C#N` [Compound A-14] the figure was 100%; with `COC(=O)c1ccc(Nc2c(Cl)c(Cl)c(C#N)c(Cl)c2C#N)cc1` [Compound B-13], 100%. Same read-out and setting: then `N#Cc1c(Cl)c(Cl)c(C#N)c(Nc2ccc([N+](=O)[O-])cc2Cl)c1Cl` [Compound C-28], with 100%; and `N#Cc1ccc(Nc2c(Cl)c(C#N)c(Cl)c(Cl)c2C#N)cc1C(F)(F)F` [Compound C-38], with 100%; and `N#Cc1c(Cl)c(Cl)c(Nc2c(Br)cc([N+](=O)[O-])cc2Br)c(Cl)c1C#N` [Compound A-45], with 100%. The same measure, in the same setting: with `N#Cc1c(F)c(F)c(C#N)c(Nc2c(Cl)cc([N+](=O)[O-])cc2Cl)c1F` [Compound C-93] the figure was 100%. With `N#Cc1c(Cl)c(Cl)c(Nc2ccc(C(F)(F)F)cc2Cl)c(Cl)c1C#N` [Compound A-17], the “protectant activity … in vivo” value came to 100%. Still for that read-out and setting: with `N#Cc1c(Cl)c(Cl)c(C#N)c(Nc2ccc(F)c(F)c2F)c1Cl` [Compound C-51] the figure was 100%.
